# Read-outs that look alike come from different tables or passages of the source.
# Experiments:
# [1] = cited from earlier work
# [2] = cited from earlier work; remark: listed apart in the source
# [3] = cited from earlier work; remark: listed apart in the source
# Solubility in DMA or DMI = format: physicochemical; details: organic solvent or mixture, in presence of pharmaceutically acceptable acid
# Description: Yet another embodiment of this invention for oral administration to a patient with cancer is 11,7-HECPT or 11,7-HMCPT dissolved in dimethylisosorbide (DMI) or dimethylacetamide (DMA) in the presence of a pharmaceutically acceptable acid. More specifically, approximately 10 mg of 11,7-HECPT or 11,7-HMCPT can be dissolved in each milliliter of DMA. However, only approximately 5.0 mg of 11,7-HECPT or 11,7-HMCPT can be dissolved in each milliliter of DMI.
# [4] = more toxic than sodium camptothecin, mice; cited from earlier work
# [5] = system: Topoisomerase I, purified from human colon carcinoma cells; details: cited from earlier work
# [6] = system: Topoisomerase I, purified from calf thymus; details: cited from earlier work
# topoisomerase I = details: cited from earlier work
# L1210 cells = details: cited from earlier work
# [7] = similar form; vs intravenous administration (U.S. Pat. No. 4,713,246); cited from earlier work
# [8] = compared with parent compound camptothecin; cited from earlier work
# [9] = above 30 mg/m^2/d CPT-11, 5 day continuous infusion; cited from earlier work
# [10] = system: topoisomerase I enzyme of P388 cells; details: greater than CPT-11; cited from earlier work
# MOLT3 cells = details: more potent than CPT-11; cited from earlier work
# P388 tumor = details: intermittent bolus (days 1, 5, and 9), intraperitoneal; mice; cited from earlier work
# [11] = Kaneda et al.; cited from earlier work
# [12] = in vivo; cited from earlier work
# [13] = dimethylacetamide, read-out: solubility in DMA
# [14] = dimethylisosorbide, read-out: solubility in DMI
compound,measurement,setting,value
"CC[C@@]1(O)C(=O)OCc2c1cc1n(c2=O)Cc2cc3ccc(O)cc3nc2-1 [11-HCPT, 11-hydroxy camptothecin]",antitumor activity,[1]; previously demonstrated,previously demonstrated antitumor activity
CC[C@@](O)(C(=O)O)c1cc2n(c(=O)c1CO)Cc1cc3ccccc3nc1-2 [sodium camptothecin],Toxicity,"[2]; sodium camptothecin, Phase II studies","unpredictable and severe myelosuppression, gastrointestinal toxicity, hemorrhagic cystitis, and alopecia"
same,antitumor activity,"[2]; sodium camptothecin, clinical trials",lack of significant anti-tumor activity
"CC[C@@]1(O)C(=O)OCc2c1cc1n(c2=O)Cc2cc3cc4c(cc3nc2-1)OCO4 [10,11-methylene dioxycamptothecin]",activity in preclinical studies,[1]; preclinical studies,very active in preclinical studies
same,water solubility,[3],relatively insoluble in water
"CC[C@@]1(O)C(=O)OCc2c1cc1n(c2=O)Cc2c-1nc1cc(O)ccc1c2OC [11,7-HMCPT, 11-hydroxy-7-methoxy camptothecin]",solubility,Solubility in DMA or DMI; [13],~10000 µg/mL
same,solubility,Solubility in DMA or DMI; [14],~5000 µg/mL
same,antitumor activity,[1]; previously demonstrated,previously demonstrated antitumor activity
same,water solubility,[3],poor water solubility
"CC[C@@]1(O)C(=O)OCc2c1cc1n(c2=O)Cc2cc3ccccc3nc2-1 [Camptothecin, camptothecin]",toxicity of lactone form relative to sodium camptothecin,[4],10 -fold
same,inhibition of Topoisomerase I,[5],inhibited
same,inhibition of Topoisomerase I,[6],inhibited
same,stabilization of the cleavable complex,topoisomerase I; closed lactone vs non-lactone form,only the closed lactone form of camptothecin helps stabilize the cleavable complex
same,DNA strand breaks in L1210 cells,L1210 cells,an increase in unexplained protein-free breaks
same,water solubility,[3],highly water insoluble
same,Toxicity,"[2]; camptothecin, Phase I trials, early 1970's",unpredictable myelosuppression and hemorrhagic cystitis
same,antitumor activity,"[2]; camptothecin, Phase I trials",some antitumor activity
COc1cc([C@@H]2c3cc4c(cc3[C@@H](O[C@@H]3O[C@@H]5CO[C@@H](C)O[C@H]5[C@H](O)[C@H]3O)[C@H]3COC(=O)[C@H]23)OCO4)cc(OC)c1O [etoposide],bioavailability following oral administration,[7],substantially equivalent to that achieved by intravenous administration
"CCc1c2c(nc3cc(O)ccc13)-c1cc3c(c(=O)n1C2)COC(=O)[C@]3(O)CC [11,7-HECPT, 11-hydroxy-7-ethyl camptothecin]",solubility,Solubility in DMA or DMI; [13],~10000 µg/mL
same,solubility,Solubility in DMA or DMI; [14],~5000 µg/mL
same,antitumor activity,[1]; previously demonstrated,previously demonstrated antitumor activity
CC[C@@]1(O)C(=O)OCc2c1cc1n(c2=O)Cc2cc3c(CN(C)C)c(O)ccc3nc2-1 [topotecan],Topo I inhibition,topoisomerase I,Topo I inhibitor
same,antitumor activity,[1]; compared with parent compound camptothecin,retain the significant antitumor activity of the parent compound
same,Toxicity,[8],less sporadic toxicities
"CCc1c2c(nc3ccc(O)cc13)-c1cc3c(c(=O)n1C2)COC(=O)[C@]3(O)CC [SN38, 10-hydroxy-7-ethyl camptothecin]",CpMax of SN38 on increasing CPT-11 dose,[9],decrease in the CpMax of SN38
same,inhibitory activity against topoisomerase I relative to CPT-11,[10],3600 -fold
same,potency in generating single-strand DNA breaks relative to CPT-11,MOLT3 cells,approximately 1000 -fold
same,anti-tumor activity compared to CPT-11 in vivo,P388 tumor,little anti-tumor activity compared to CPT-11
same,inhibition of Topoisomerase I,[5],inhibited
same,inhibition of Topoisomerase I,[6],inhibited
same,plasma concentration of SN38 in mice,[11],maintained longer after CPT-11 administration than after treatment with SN38
same,overall fractional concentration of the lactone species,[12],fairly constant through a range of doses
same,water solubility,[3],poorly soluble in water
